According to paper PMC2752443 (2009):

How the values were obtained:
[1] = system: theophylline-binding RNA aptamer (RNA, aptamer) GGCGAUACCAGCCGAAAGGCCCUUGGCAGCGUC; experiment: 2D 1H-1H NMR ZZ-exchange; settings: no Mg2+; 15 °C; apparent; slope of kf against free theophylline
[2] = system: theophylline-binding RNA aptamer (RNA, aptamer) GGCGAUACCAGCCGAAAGGCCCUUGGCAGCGUC; experiment: 2D 1H-1H NMR ZZ-exchange, koff/kon; settings: no Mg2+; 15 °C; from apparent rate constants

kon [1]: 600 ± 57 M⁻¹ s⁻¹ | Kd [2]: 2500 µM
Compound: Cn1c(=O)c2[nH]cnc2n(C)c1=O
